From article PMC11241769, “Comprehensive Characterization of Phytochemical Composition, Membrane Permeability, and Antiproliferative Activity of Juglans nigra Polyphenols” (International Journal of Molecular Sciences, 2024)
Read-outs that look alike come from different tables or passages of the source. One block for each compound: values may come before it.

What was measured:
[1] = test system: Vero E6 non-tumorous kidney cells; experiment: selectivity study: cytostatic activity on non-tumorous Vero E6 cells, Alamar Blue assay; format: cell-based, African green monkey (C. sabaeus); details: Vero E6 non-tumorous kidney cells
Method: (§1) To determine the selectivity, we assessed the compounds on the Vero E6 non-tumorous kidney cells from African green monkeys (C. sabaeus), and their cytostatic activity was determined (Table 3).
(§2) For the selectivity study, a non-human primate cell culture was used. Vero E6 cells were established from kidney tissue sampled from an African green monkey (C. sabaeus) They originated from a primary culture initiated in March 1962 by Yoshihiro Yasumura at Chiba University in Japan. Vero E6 cells were obtained from the European Collection of Authenticated Cell Cultures (ECACC 85020206) and maintained in DMEM high-glucose (4.5 g/L) medium (Lonza, Basel, Switzerland) containing 10% FBS (Gibco, Thermo Fisher Scientific) and supplemented with 2 mM of L-glutamine (Lonza), 1 mM sodium pyruvate (Merck), and CellCultureGuard (PanReacApplichem, ITW Reagents, Darmstadt, Germany) at 37 °C in a humidified atmosphere of 5% CO2.
(§3) All cell cultures were maintained at 37 °C in a humidified atmosphere with 5% CO2. The cells were grown to confluence and then divided into 96-well tissue culture plates with the initial cell number of 5.0 × 10^3 cells/well. […] Control cells were treated with serum-free medium or DMSO (c = 1.0 v/v %) at the same conditions. After this incubation period, cells were washed twice with serum-free medium, and following that, they were cultured for another 72 h in a 10% serum-containing medium at 37 °C. After that, cell viability was determined using the Alamar Blue assay. Alamar Blue is a non-toxic, resazurin-based dye that living cells reduce to a fluorescent molecule, resorufin [99]. Resazurin sodium salt (Merck, Darmstadt, Germany) was dissolved in PBS at c = 0.15 mg/mL, pH 7.4). A measure of 22 uL of the dye was added to each well and incubated at 37 °C for 3 h until the pink color of the reduced dye appeared. Fluorescence intensity in each well was measured using a Synergy H4 multimode microplate reader (BioTek, Winooski, VT); at λex = 530/30 and λem = 610/10 nm.
(§4) The cytostasis values were expressed in the percentage of untreated control.

[2] = PAMPA-GI (parallel artificial membrane permeability assay, phosphatidylcholine membrane); format: in vitro ADME
Method: (§5) For the PAMPA-BBB test, 5 μL of porcine polar brain lipid extract (PBLE) solution (16.0 mg PBLE + 8.0 mg cholesterol dissolved in 600.0 μL n-dodecane) was applied for each well of the 96-well polycarbonate-based filter donor plates (top plate) (Multiscreen™-IP, MAIPN4510, pore size 0.45 μm; Merck). For the PAMPA-GI assay, the wells of the top plate were coated with 5 μL of the mixture of 16.0 mg phosphatidylcholine + 8.0 mg cholesterol dissolved in 600.0 μL n-dodecane. A measure of 150.0 μL of aliquots of the filtrated donor solutions were placed on the membrane. The 96-well PTFE acceptor plates (bottom plates) (Multiscreen Acceptor Plate, MSSACCEPTOR; Merck), were filled with 300.0 μL buffer solution (0.01 M PBS buffer, pH 7.4). The donor plate was placed upon the acceptor plate, and both plates were incubated together at 37 °C for 4 h in a Heidolph Titramax 1000 Vibrating platform shaker (Heidolph, Schwabach, Germany).
(§6) After incubation, sandwich plates were separated and the concentrations of each compound in the starting donor solution and in the acceptor and donor wells were determined in triplicate by UHPLC-DAD method described above. […] The effective permeability and the membrane retention in the PAMPA-BBB and the PAMPA GI experiments were calculated by Equations (4)–(7), respectively:(4) Pe=−2.303/A(t−τSS)·VA·VD/VA+VD·lg1−VA+VD/1−MR·VD×CAt/CD0 (5) Pe=−2.303/A(t−τSS)·1/1+ra·lg−ra+1+ra/1−MR×CDt/CD0 where Pe is the effective permeability coefficient (cm/s), A is the filter area (0.24 cm^2), VD and VA are the volumes in the donor (0.15 cm^3) and acceptor phases (0.30 cm^3), t is the incubation time (s), τSS is the time (s) to reach steady-state (240 s), CD(t) is the concentration (mol/cm^3) of the compound in the donor phase at time t, CD(0) is the concentration (mol/cm^3) of the compound in the donor phase at time 0, and MR is the estimated membrane retention factor (the estimated mole fraction of solute lost to the membrane), ra is the sink asymmetry ratio (gradient-pH-induced), defined as:(6) ra=VD/VA×Pe(A→D)/Pe(D→A) (7) MR=1−CDt/CD0−VA/VDCAt/CD0
(§7) All experiments were performed in three triplicates on three consecutive days (n = 9), caffeine standard was used as positive, while rutin as negative control. ClogP values were calculated by ChemAxon Marvin 22.3.

[3] = PAMPA-BBB (parallel artificial membrane permeability assay, porcine polar brain lipid extract); format: in vitro ADME
Method: as §5, §6, §7

[4] = test system: MDA-MB 231, A2058, HT-29 and Vero E6 cells; experiment: in vitro cytostasis, Alamar Blue assay, cell lines taken together; format: cell-based; details: tumor cell lines (MDA-MB 231, A2058, HT-29)
Method: (§8) For the evaluation of the in vitro antiproliferative activity of the compounds, the cell viability was determined by resazurin (Alamar Blue) assay on MDA-MB 231 breast carcinoma, A2058 melanoma, and HT-29 colon carcinoma cell culture. The control wells were treated only with serum-free medium.
as §1
(§9) The cytostatic effect of the compounds was studied on tumor cell cultures in vitro. MDA-MB-231 human breast adenocarcinoma cells were cultured in DMEM medium supplemented with 10% FBS, 2 mM L-glutamine, penicillin–streptomycin antibiotics mixture (50 IU/mL, and 50 μg/mL, respectively), 1 mM sodium pyruvate, and 1% non-essential amino acid mixture. A2058 human melanoma cells, and HT-29 colorectal carcinoma cells were cultured in RPMI medium supplemented with 10% FBS, 2 mM L-glutamine, and penicillin–streptomycin antibiotics mixture (50 IU/mL and 50 μg/mL, respectively). Cell lines were generous gifts from Dr. József Tóvári (Department of Experimental Pharmacology, National Institute of Oncology, Budapest, Hungary).
as §2, §3, §4

[5] = chemical stability in the aqueous solutions/buffer of the PAMPA experiments (UHPLC-DAD)
Method: Quantities of the isolated compounds in the PAMPA experiments (14, 58, 74, 86, 92, 106, 141, and 143) were determined by UHPLC-DAD. The Juglans extracts were analyzed by an ACQUITY UPLC H-Class PLUS System equipped with a quaternary solvent delivery pump (QSM), an auto-sampler manager (FTN), a column compartment (CM), and a photodiode array (PDA) detector (Waters Corporation). An Acquity BEH C18 column (100 × 2.1 mm i.d., 1.7 µm; Waters Corporation) maintained at 30 °C was used as stationary phase. Eluent A was 0.3% acetic acid in water and eluent B was acetonitrile, the following gradient elution was applied (flow rate: 0.3 mL/min): 5.0–100.0% B (0.0–11.0 min), 100.0–5.0% B (11.0–11.5 min), 5% B (11.5–15.0 min). The injection volume was 5 µL and chromatograms were recorded at 200–400 nm. The chromatograms acquired at the UV absorption maxima of each compound were used for data evaluation.
Stock solutions (10 mM in methanol) were diluted with the defined buffer (pH 7.4 for the PAMPA-BBB and pH 6.8 for the PAMPA-GI assays) to obtain the donor solutions (composition: 594.0 μL buffer + 6.0 μL stock solution). The buffers were prepared as follows: pH = 6.8: 20.2 g Na2HPO4 ∙ 7H2O and 3.4 g NaH2PO4 ∙ H2O dissolved in distilled water to achieve the final volume of 1000.0 mL, pH adjustment with 0.5 M NaOH or 0.5 M HCl; pH = 7.4: one PBS tablet (Phosphate Buffered Saline, pH 7.4; Sigma Aldrich) dissolved in 200.0 mL distilled water. Donor solutions were filtered through Phenex-RC 15 mm, 0.2 μm syringe filters (Gen-Lab Ltd., Budapest, Hungary).

[6] = test system: HT-29 colorectal carcinoma cells; experiment: in vitro cytostatic (antiproliferative) activity, Alamar Blue (resazurin) assay, HT-29; format: cell-based; details: Homo sapiens; in vitro cytostatic activity, Alamar Blue (resazurin) assay, HT-29 colon carcinoma cell culture; read-out: IC50 (µM) HT-29
Method: as §8, §9, §3, §4

[7] = test system: MDA-MB-231 human breast adenocarcinoma cells; experiment: in vitro cytostatic (antiproliferative) activity, Alamar Blue (resazurin) assay, MDA-MB 231; format: cell-based; details: in vitro cytostatic activity, Alamar Blue (resazurin) assay, MDA-MB 231 breast carcinoma cell culture, read-out: IC50 (µM) MDA-MB 231
Method: as §8, §9, §3, §4

[8] = test system: A2058 human melanoma cells; experiment: in vitro cytostatic (antiproliferative) activity, Alamar Blue (resazurin) assay, A2058; format: cell-based
Method: as §8, §9, §3, §4

cell culture = test system: cell culture; design: method as in PMID 34217043; details: read-out: concentration causing 50% inhibition; depending on cell culture; cited from earlier work

logPe PAMPA-GI (n = 9) ([2]; donor pH 6.8, acceptor pH 7.4, 37 °C, 4 h, n.d. = not detected in the acceptor phase): not detected in the acceptor phase
logPe PAMPA-BBB (n = 9) ([3]; donor pH 7.4, acceptor pH 7.4, 37 °C, 4 h, n.d. = not detected in the acceptor phase): not detected in the acceptor phase
degradation in the pH 7.4 buffer ([5]; pH 7.4): significant degree of degradation
SMILES: O=c1c(O[C@@H]2OC[C@@H](O)[C@H](O)[C@H]2O)c(-c2ccc(O)c(O)c2)oc2cc(O)cc(O)c12 [Compound 74, quercetin-3-O-xyloside (reynoutrin)]
IC50 (cytostatic activity) on the Vero E6 cells ([1]; selectivity): not cytostatic
effect on the tumor cell lines [4]: no effect

SMILES: O=C1C=CC(=O)c2c(O)cccc21 [Compound 141, juglone]
IC50 ([1]; Chlorocebus sabaeus, Vero C1008, in vitro cytostatic activity, Alamar Blue assay, read-out: IC50 (µM) VERO E6 Non Tumorous): 3.7 ± 0.7 µM
Papp at 4 h, 100 µM ([2]; PAMPA, read-out: logPe PAMPA-GI (n = 9) (converted)): 38.9 ×10⁻⁶ cm/s
IC50 [6]: 0.53 ± 0.1 µM
IC50 [7]: 9.9 ± 0.7 µM
Papp at 4 h, 100 µM ([3]; pig, PAMPA, pH 7.4, read-out: logPe PAMPA-BBB (n = 9) (converted)): 77.6 ×10⁻⁶ cm/s
IC50 ([8]; A2058 melanoma, treatment overnight, then 72 h culture, Alamar Blue, read-out: IC50 (antiproliferative effect) on the melanoma culture): 15.5 µM
IC50 ([8]; in vitro cytostatic activity, Alamar Blue (resazurin) assay, A2058 melanoma cell culture, read-out: IC50 (µM) A2058): 13.5 ± 0.7 µM
additional minor compounds appeared in the aqueous solutions prepared for the PAMPA experiments ([5]; based on UHPLC-DAD, aqueous donor solutions): < 10%

SMILES: C/C=C/C1=CC=C/C(=C2\C(=O)CNC2=O)O1 [vermelhotin]
IC50 (cell culture): 12 to 20 µM
